Assay results reported in ChEMBL document CHEMBL4814061, “Novel Azaquinolones as PARP1 Inhibitors for Treating Cancer” (ACS Med Chem Lett, 2021).

Target: Poly [ADP-ribose] polymerase 1 (Homo sapiens, UniProt P09874)
Experiment: Inhibition of recombinant full length 6His-tagged PARP1 (unknown origin) incubated for 4 hrs by fluorescence anisotropy assay

Sequence of Poly [ADP-ribose] polymerase 1 (P09874 whole entry): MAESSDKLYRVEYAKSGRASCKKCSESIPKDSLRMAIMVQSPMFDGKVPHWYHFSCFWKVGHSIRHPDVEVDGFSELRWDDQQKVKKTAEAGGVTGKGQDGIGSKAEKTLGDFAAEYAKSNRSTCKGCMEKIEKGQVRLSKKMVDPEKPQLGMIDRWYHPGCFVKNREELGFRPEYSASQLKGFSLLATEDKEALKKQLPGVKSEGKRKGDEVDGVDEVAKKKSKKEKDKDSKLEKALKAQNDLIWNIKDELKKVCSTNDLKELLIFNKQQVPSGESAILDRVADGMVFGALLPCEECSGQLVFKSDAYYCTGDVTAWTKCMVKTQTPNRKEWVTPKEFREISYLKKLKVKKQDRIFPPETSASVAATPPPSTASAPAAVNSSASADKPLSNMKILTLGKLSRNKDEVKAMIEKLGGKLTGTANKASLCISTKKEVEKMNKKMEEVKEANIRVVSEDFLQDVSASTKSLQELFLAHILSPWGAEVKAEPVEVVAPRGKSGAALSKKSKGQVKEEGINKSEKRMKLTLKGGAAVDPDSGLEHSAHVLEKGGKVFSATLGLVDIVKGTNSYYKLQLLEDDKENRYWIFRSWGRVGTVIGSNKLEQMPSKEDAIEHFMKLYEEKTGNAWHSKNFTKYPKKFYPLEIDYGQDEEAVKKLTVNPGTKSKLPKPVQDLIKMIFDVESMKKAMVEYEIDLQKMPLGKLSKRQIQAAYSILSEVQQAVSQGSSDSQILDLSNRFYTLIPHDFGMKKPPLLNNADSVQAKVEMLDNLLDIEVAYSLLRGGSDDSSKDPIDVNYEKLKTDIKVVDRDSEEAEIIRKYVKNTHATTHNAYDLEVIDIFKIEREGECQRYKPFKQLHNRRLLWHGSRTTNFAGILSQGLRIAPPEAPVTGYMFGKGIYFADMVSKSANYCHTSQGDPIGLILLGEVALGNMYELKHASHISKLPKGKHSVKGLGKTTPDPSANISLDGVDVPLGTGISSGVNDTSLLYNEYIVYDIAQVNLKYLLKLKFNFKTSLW

IC50 | SMILES
3 nM | CNC(=O)c1ccc(N2CCN(Cc3cc4[nH]c(=O)c(CC(F)F)cc4cn3)CC2)c(F)n1
2 nM | CCc1cc2cnc(CN3CCN(c4ccc(C(=O)NC)nc4F)CC3)cc2[nH]c1=O

More lines, now with the values behind:

SMILES | IC50
CNC(=O)c1ccc(N2CCN(Cc3cc4[nH]c(=O)c(CCF)cc4cn3)CC2)cn1 | 2 nM
CCc1cc2cnc(CN3CCN(c4ccc(C(=O)NC)nc4Cl)CC3)cc2[nH]c1=O | 3 nM
CCc1cc2cnc(CN3CCN(c4ccc(C(N)=O)nc4)CC3)cc2[nH]c1=O | 2 nM
